As a reminder, the TD50 is the dose at which the toxic effect under study appears in half of the subjects.

Results on 4 compounds are retold here after PubChem BioAssay AID1745844 (Carcinogenic Potency Database (CPDB), 2022).

This data set deals with rodent lifetime carcinogenesis bioassay, tumor incidence TD50. Nature of the data set: chronic cancer bioassays in animals – CPDB, compiled studies (AID 1745844).

The source made the active and inactive calls. No rule for the calls is given here.

Turning to `CC=NN(C)C=O`, the TD50 by setting is: (mouse, strain Swiss albino, females, by gavage, site: clitoral gland, lesion: several types, types named in the paper, dosed 52 weeks, study length 109 weeks) 38.2 mg/kg/day; (mouse, strain Swiss albino, females, by gavage, site: clitoral gland, lesion: squamous-cell carcinoma, dosed 52 weeks, study length 109 weeks) 46.4 mg/kg/day; (mouse, strain Swiss albino, females, by gavage, site: forestomach, lesion: several types, types named in the paper, dosed 52 weeks, study length 109 weeks) 28 mg/kg/day; (mouse, strain Swiss albino, females, by gavage, site: forestomach, lesion: squamous-cell papilloma, dosed 52 weeks, study length 109 weeks) 32.4 mg/kg/day; (mouse, strain Swiss albino, females, by gavage, site: liver, lesion: hepatoma, dosed 52 weeks, study length 109 weeks) 28 mg/kg/day (inactive); (mouse, strain Swiss albino, females, by gavage, site: lung, lesion: adenocarcinoma, dosed 52 weeks, study length 109 weeks) 19.6 mg/kg/day. Moreover, the TD50 (mouse, strain Swiss albino, females, by gavage, site: lung, lesion: adenoma, dosed 52 weeks, study length 109 weeks) turned out to be 7.37 mg/kg/day; the TD50 (mouse, strain Swiss albino, females, by gavage, site: lung, lesion: several types, types named in the paper, dosed 52 weeks, study length 109 weeks) is 5.66 mg/kg/day; the TD50 (mouse, strain Swiss albino, males, by gavage, site: liver, lesion: hepatoma, dosed 52 weeks, study length 79 weeks) is 11 mg/kg/day (inactive); the TD50 (mouse, strain Swiss albino, males, by gavage, site: lung, lesion: adenoma, dosed 52 weeks, study length 79 weeks) was found to be 13.7 mg/kg/day; the TD50 (mouse, strain Swiss albino, males, by gavage, site: lung, lesion: several types, types named in the paper, dosed 52 weeks, study length 79 weeks) is 14.4 mg/kg/day; the TD50 (mouse, strain Swiss albino, males, by gavage, site: preputial gland, lesion: fibrosarcoma, dosed 52 weeks, study length 79 weeks) came out at 21.3 mg/kg/day. The TD50 is, setting by setting: (mouse, strain Swiss albino, males, by gavage, site: preputial gland, lesion: several types, types named in the paper, dosed 52 weeks, study length 79 weeks) 1.61 mg/kg/day; (mouse, strain Swiss albino, males, by gavage, site: preputial gland, lesion: squamous-cell carcinoma, dosed 52 weeks, study length 79 weeks) 2.17 mg/kg/day.
Consider `C[C@@H]1C[C@H](C)CN(S(=O)(=O)c2ccc(Cl)c(C(=O)O)c2)C1`, for which, under “rat, strain Fischer 344, males, in feed, site: liver, lesion: hepatocellular carcinoma, dosed 70 weeks, study length 71 weeks”, the TD50 is 4.85 mg/kg/day.
In the case of `Nc1c(N=Nc2ccc([N+](=O)[O-])cc2)c(S(=O)(=O)O)cc2cc(S(=O)(=O)O)c(N=Nc3ccccc3)c(O)c12`, the carcinogen call is “negative (inactive)” (rat, strain Not specified, females, in feed, site: any site (literature study), lesion: several types, types named in the paper, dosed 64 weeks, study length 64 weeks); “negative (inactive)” (rat, strain Not specified, females, in feed, site: liver, lesion: one or several types, types not named, dosed 64 weeks, study length 64 weeks); “negative (inactive)” (rat, strain Not specified, males, in feed, site: any site (literature study), lesion: several types, types named in the paper, dosed 64 weeks, study length 64 weeks); “negative (inactive)” (rat, strain Not specified, males, in feed, site: liver, lesion: one or several types, types not named, dosed 64 weeks, study length 64 weeks).
On to `CN(C)N=O`, for which the TD50 is 0.177 mg/kg/day (mouse, strain A, males, in drinking water, site: lung, lesion: alveolar-cell adenoma, dosed 72 weeks, study length 72 weeks); 0.396 mg/kg/day (mouse, strain BALB/c, females, in drinking water, site: any site (literature study), lesion: several types, types named in the paper, dosed 85 weeks, study length 85 weeks); 0.324 mg/kg/day (mouse, strain BALB/c, females, in drinking water, site: lung, lesion: adenoma, dosed 85 weeks, study length 85 weeks); 0.0964 mg/kg/day (mouse, strain C57BL, females, by gavage, site: any site (literature study), lesion: several types, types named in the paper, dosed 50 weeks, study length 72 weeks); 0.153 mg/kg/day (mouse, strain C57BL, females, by gavage, site: forebrain, lesion: olfactory neuroepithelioma, dosed 50 weeks, study length 72 weeks); 0.35 mg/kg/day (mouse, strain C57BL, females, by gavage, site: liver, lesion: benign tumor, dosed 50 weeks, study length 72 weeks). Besides, the TD50 (mouse, strain C57BL, females, by gavage, site: liver, lesion: malignant tumor, dosed 50 weeks, study length 72 weeks) was found to be 0.429 mg/kg/day; the TD50 (mouse, strain C57BL, males, by gavage, site: any site (literature study), lesion: several types, types named in the paper, dosed 50 weeks, study length 72 weeks) was 0.06 mg/kg/day; the TD50 (mouse, strain C57BL, males, by gavage, site: forebrain, lesion: olfactory neuroepithelioma, dosed 50 weeks, study length 72 weeks) is 0.161 mg/kg/day; the TD50 (mouse, strain C57BL, males, by gavage, site: liver, lesion: benign tumor, dosed 50 weeks, study length 72 weeks) was 0.508 mg/kg/day; the TD50 (mouse, strain C57BL, males, by gavage, site: liver, lesion: malignant tumor, dosed 50 weeks, study length 72 weeks) is 0.179 mg/kg/day; the TD50 (mouse, strain C57BL, males, by gavage, site: lung, lesion: adenoma, dosed 50 weeks, study length 72 weeks) was found to be 21.1 mg/kg/day. The TD50 (rat, strain Buffalo, males, in feed, site: liver, lesion: hepatocellular carcinoma, dosed 26 weeks, study length 52 weeks) is 1.76 mg/kg/day; the TD50 (rat, strain Colworth (Wistar derived), females, in drinking water, site: liver, lesion: hepatocellular carcinoma, dosed 176 weeks, study length 176 weeks) was 0.237 mg/kg/day; the TD50 (rat, strain Colworth (Wistar derived), females, in drinking water, site: liver, lesion: hepatocellular tumor, dosed 176 weeks, study length 176 weeks) is 0.145 mg/kg/day; the TD50 (rat, strain Colworth (Wistar derived), females, in drinking water, site: liver, lesion: intrahepatic bile duct tumor, benign, dosed 176 weeks, study length 176 weeks) is 0.0763 mg/kg/day; the TD50 (rat, strain Colworth (Wistar derived), females, in drinking water, site: liver, lesion: intrahepatic bile duct tumor, dosed 176 weeks, study length 176 weeks) is 0.0752 mg/kg/day; the TD50 (rat, strain Colworth (Wistar derived), females, in drinking water, site: liver, lesion: mesenchymal hemangio-sarcoma, -pericytoma, or -endothelioma, malignant, dosed 176 weeks, study length 176 weeks) is 0.914 mg/kg/day. Moreover, the TD50 (rat, strain Colworth (Wistar derived), females, in drinking water, site: liver, lesion: neoplasm of liver cell, bile duct, mesenchyme, Kupffer cell, or unknown, dosed 176 weeks, study length 176 weeks) is 0.0424 mg/kg/day; the TD50 (rat, strain Colworth (Wistar derived), males, in drinking water, site: liver, lesion: hepatocellular carcinoma, dosed 176 weeks, study length 176 weeks) was 0.218 mg/kg/day; the TD50 (rat, strain Colworth (Wistar derived), males, in drinking water, site: liver, lesion: hepatocellular tumor, dosed 176 weeks, study length 176 weeks) was 0.157 mg/kg/day; the TD50 (rat, strain Colworth (Wistar derived), males, in drinking water, site: liver, lesion: intrahepatic bile duct tumor, benign, dosed 176 weeks, study length 176 weeks) is 0.313 mg/kg/day; the TD50 (rat, strain Colworth (Wistar derived), males, in drinking water, site: liver, lesion: intrahepatic bile duct tumor, malignant, dosed 176 weeks, study length 176 weeks) was found to be 23.6 mg/kg/day; the TD50 (rat, strain Colworth (Wistar derived), males, in drinking water, site: liver, lesion: intrahepatic bile duct tumor, dosed 176 weeks, study length 176 weeks) is 0.308 mg/kg/day. Also, the TD50 runs as follows: (rat, strain Colworth (Wistar derived), males, in drinking water, site: liver, lesion: mesenchymal hemangio-sarcoma, -pericytoma, or -endothelioma, malignant, dosed 176 weeks, study length 176 weeks) 0.712 mg/kg/day; (rat, strain Colworth (Wistar derived), males, in drinking water, site: liver, lesion: neoplasm of liver cell, bile duct, mesenchyme, Kupffer cell, or unknown, dosed 176 weeks, study length 176 weeks) 0.0867 mg/kg/day; (rat, strain Colworth (Wistar derived), males, in drinking water, site: lung, lesion: several types, types named in the paper, dosed 176 weeks, study length 176 weeks) 1.64 mg/kg/day; (rat, strain Fischer 344, females, in drinking water, site: liver, lesion: hemangiosarcoma, dosed 30 weeks, study length 110 weeks) 0.438 mg/kg/day; (rat, strain Fischer 344, females, in drinking water, site: liver, lesion: hepatocellular carcinoma, dosed 30 weeks, study length 110 weeks) 0.135 mg/kg/day; (rat, strain Fischer 344, females, in drinking water, site: liver, lesion: several types, types named in the paper, dosed 30 weeks, study length 110 weeks) 0.0587 mg/kg/day. Further, the TD50 by setting is: (rat, strain Fischer 344, males, by gavage, site: kidney, lesion: mesenchymal neoplasm, dosed 30 weeks, study length 65 weeks) 0.189 mg/kg/day; (rat, strain Fischer 344, males, by gavage, site: liver, lesion: cholangiocellular tumor, benign, dosed 30 weeks, study length 65 weeks) 0.822 mg/kg/day; (rat, strain Fischer 344, males, by gavage, site: liver, lesion: hemangiosarcoma, dosed 30 weeks, study length 65 weeks) 0.822 mg/kg/day; (rat, strain Fischer 344, males, by gavage, site: liver, lesion: hepatocellular tumor, benign, dosed 30 weeks, study length 65 weeks) 0.372 mg/kg/day; (rat, strain Fischer 344, males, by gavage, site: liver, lesion: several types, types named in the paper, dosed 30 weeks, study length 65 weeks) 0.189 mg/kg/day; (rat, strain Fischer 344, males, by gavage, site: lung, lesion: alveolar/bronchiolar adenoma, dosed 30 weeks, study length 65 weeks) 0.106 mg/kg/day. The TD50 (rat, strain Fischer 344, males, by gavage, site: lung, lesion: several types, types named in the paper, dosed 30 weeks, study length 65 weeks) is 0.0765 mg/kg/day; the TD50 (rat, strain Fischer 344, males, by gavage, site: lung, lesion: squamous-cell carcinoma, dosed 30 weeks, study length 65 weeks) amounted to 0.372 mg/kg/day; the TD50 (rat, strain MRC Porton (Wistar derived), females, in feed, site: liver, lesion: one or several types, types not named, dosed 52 weeks, study length 120 weeks) was found to be 0.443 mg/kg/day; the TD50 (rat, strain MRC Porton (Wistar derived), females, in feed, site: liver, lesion: one or several types, types not named, dosed 108 weeks, study length 120 weeks) was 1.4 mg/kg/day; the TD50 (rat, strain MRC Porton (Wistar derived), males, in feed, site: liver, lesion: one or several types, types not named, dosed 120 weeks, study length 120 weeks) was 1.18 mg/kg/day; the TD50 (rat, strain Wistar, females, in feed, site: all sites, lesion: leukemia, dosed 96 weeks, study length 96 weeks) stood at 1.46 mg/kg/day. The TD50 runs as follows: (rat, strain Wistar, females, in feed, site: liver, lesion: hemangioendothelioma, dosed 96 weeks, study length 96 weeks) 1.83 mg/kg/day; (rat, strain Wistar, females, in feed, site: liver, lesion: hepatocellular carcinoma, dosed 96 weeks, study length 96 weeks) 4.1 mg/kg/day; (rat, strain Wistar, females, in feed, site: liver, lesion: nodular hyperplasia, dosed 96 weeks, study length 96 weeks) 0.113 mg/kg/day; (rat, strain Wistar, males, in feed, site: liver, lesion: hemangioendothelioma, dosed 96 weeks, study length 96 weeks) 1.95 mg/kg/day; (rat, strain Wistar, males, in feed, site: liver, lesion: hepatocellular carcinoma, dosed 96 weeks, study length 96 weeks) 5.52 mg/kg/day; (rat, strain Wistar, males, in feed, site: liver, lesion: nodular hyperplasia, dosed 96 weeks, study length 96 weeks) 0.782 mg/kg/day. Under “rat, strain Wistar, males, in feed, site: testis, lesion: Leydig-cell tumor, dosed 54 weeks, study length 69 weeks”, the TD50 is 0.136 mg/kg/day. Besides, for the setting “rat, strain Wistar, males, in feed, site: liver, lesion: carcinoma, dosed 54 weeks, study length 69 weeks”, the carcinogen call is “negative (inactive)”.
